Data: paper PMC6117091, “The C. difficile clnRAB operon initiates adaptations to the host environment in response to LL-37” (PLoS Pathogens, 2018)
Converted amounts (≈) assume the structure as drawn.

Tests used:
[1] = test system: C. difficile clnAB mutant (MC935); test: Minimum bactericidal concentration (MBC); format: cell-based, Clostridioides difficile; conditions: 1:10 dilution into BHIS, 24 h, 37°C, anaerobic
[2] = test system: TcdA in C. difficile 630Δerm (parent strain); test: TcdA western blot; conditions: 2 μg/ml LL-37, TY medium, 24 h, 37°C; three replicates
[3] = test system: C. difficile clnR mutant; test: qRT-PCR of selected RNA-seq transcripts in LL-37; conditions: 2 µg/ml LL-37; normalized to 630∆erm in BHIS; mean ± SEM, n ≥ 3
[4] = test system: C. difficile clnAB mutant; test: qRT-PCR of selected RNA-seq transcripts in LL-37; conditions: 2 µg/ml LL-37; normalized to 630∆erm in BHIS; mean ± SEM, n ≥ 3
[5] = test system: C. difficile clnR Tn::clnRAB; test: qRT-PCR of selected RNA-seq transcripts in LL-37; conditions: 2 µg/ml LL-37; normalized to 630∆erm in BHIS; mean ± SEM, n ≥ 3
[6] = test system: C. difficile clnR and clnAB mutants; test: Growth in minimal medium with LL-37 (growth curves); conditions: 0.5 μg/ml LL-37; base MM, MM with mannitol, NAG, EA; versus parent strain
[7] = test system: C. difficile 630Δerm; test: Growth in minimal medium with LL-37, maximum doubling time; conditions: mean ± SD, n ≥ 3
[8] = test system: C. difficile clnR Tn::clnRAB; test: as above; conditions: mean ± SD, n ≥ 3
[9] = test system: clnR expression in C. difficile 630Δerm; test: clnR expression by qRT-PCR after exposure to antimicrobials (induction specificity); conditions: 2 μg/ml, BHIS; normalized to 630Δerm in BHIS without antimicrobials; mean of three replicates ± SEM
[10] = 0.5 µg/ml LL-37, MM + 30 mM ethanolamine
[11] = 0.5 µg/ml LL-37, MM + 30 mM fructose
[12] = 0.5 µg/ml LL-37, MM + 30 mM glucose
[13] = 0.5 µg/ml LL-37, MM + 30 mM mannitol
[14] = 0.5 µg/ml LL-37, MM + 30 mM mannose

## CC[C@H](C)[C@H](NC(=O)[C@H](CCCCN)NC(=O)[C@H](CCC(=O)O)NC(=O)[C@H](CCCCN)NC(=O)[C@H](CO)NC(=O)[C@H](CCCCN)NC(=O)[C@H](CCCNC(=N)N)NC(=O)[C@H](Cc1ccccc1)NC(=O)[C@H](Cc1ccccc1)NC(=O)[C@H](CC(=O)O)NC(=O)CNC(=O)[C@H](CC(C)C)NC(=O)[C@@H](N)CC(C)C)C(=O)NCC(=O)N[C@@H](CCCCN)C(=O)N[C@@H](CCC(=O)O)C(=O)N[C@@H](Cc1ccccc1)C(=O)N[C@@H](CCCCN)C(=O)N[C@@H](CCCNC(=N)N)C(=O)N[C@H](C(=O)N[C@H](C(=O)N[C@@H](CCC(N)=O)C(=O)N[C@@H](CCCNC(=N)N)C(=O)N[C@H](C(=O)N[C@@H](CCCCN)C(=O)N[C@@H](CC(=O)O)C(=O)N[C@@H](Cc1ccccc1)C(=O)N[C@@H](CC(C)C)C(=O)N[C@@H](CCCNC(=N)N)C(=O)N[C@@H](CC(N)=O)C(=O)N[C@@H](CC(C)C)C(=O)N[C@H](C(=O)N1CCC[C@H]1C(=O)N[C@@H](CCCNC(=N)N)C(=O)N[C@H](C(=O)N[C@@H](CCC(=O)O)C(=O)N[C@@H](CO)C(=O)O)[C@@H](C)O)C(C)C)[C@@H](C)CC)C(C)C)[C@@H](C)CC [LL-37]
[1]
  MBC: 20 µg/mL (≈ 4.45 µM)
[2]
  TcdA levels, fold decrease: about 3 fold
[3]
  CD630_02840 relative expression: 2.2 ± 0.5
  cstA (CD630_26000) relative expression: 2.3 ± 0.5
  grdA (CD630_23520) relative expression: 1.4 ± 0.1
  mtlA (CD630_23340) relative expression: 1.2 ± 0.7
  sigT (csfT; CD630_06770) relative expression: 2.3 ± 1.1
  sigU (csfU; CD630_18870) relative expression: 2.0 ± 0.6
  vanZ1 (CD630_12400) relative expression: 13.4 ± 5.8
[4]
  cstA (CD630_26000) relative expression: 2.9 ± 1.2
  iorA (CD630_23810) relative expression: 20.5 ± 7.3
  mtlA (CD630_23340) relative expression: 5.5 ± 4.3
  sigT (csfT; CD630_06770) relative expression: 1.2 ± 0.1
  sigU (csfU; CD630_18870) relative expression: 3.1 ± 1.4
  vanZ1 (CD630_12400) relative expression: 0.9 ± 0.2
[5]
  CD630_02840 relative expression: 602.6 ± 455.6
  cstA (CD630_26000) relative expression: 36.3 ± 21.3
  grdA (CD630_23520) relative expression: 1649.2 ± 814.6
  mtlA (CD630_23340) relative expression: 0.6 ± 0.2
[6]
  growth (in words): grew better than the parent strain
[7]; 0.5 µg/ml LL-37, MM + 30 mM NAG, § p < 0.05 vs no LL-37
  Doubling time: 91.5 ± 5.7 min
[7]; [10]
  Doubling time: 90.7 ± 7.9 min
[7]; [11]
  Doubling time: 70.2 ± 3.9 min
[7]; [12]
  Doubling time: 67.7 ± 4.9 min
[7]; [13]
  Doubling time: 69.9 ± 3.4 min
[7]; [14]
  Doubling time: 70.3 ± 5.5 min
[7]; 0.5 µg/ml LL-37, base MM
  Doubling time: 82.2 ± 5.1 min
[8]; 0.5 µg/ml LL-37, MM + 30 mM NAG
  Doubling time: 111.1 ± 16.5 min
[8]; [10]
  Doubling time: 93.4 ± 12.2 min
[8]; [11]
  Doubling time: 80.4 ± 7.4 min
[8]; [12]
  Doubling time: 76.4 ± 5.4 min
[8]; [13]
  Doubling time: 75.6 ± 5.3 min
[8]; [14]
  Doubling time: 80.4 ± 8.3 min
[8]; 0.5 µg/ml LL-37, base MM, § p < 0.05 vs no LL-37
  Doubling time: 84.8 ± 4.5 min
[9]
  Relative clnR expression: 530.1 ±110.5
